Assay results from patent US20240309360A1, “TRANS-ACTIVATORS AND METHODS AND USE THEREOF” (THE GOVERNING COUNCIL OF THE UNIVERSITY OF TORONTO, priority 2021, published 2024).

Columns and labels:
Assay type in all cases: cell-based, human
[1] = system: transcriptional activity of 83 transcriptional regulators on the EGFP reporter; experiment: Tethered reporter assays in the presence of inhibitors; conditions: for effect of inhibitor on activity of the activators: 100 nM flavopiridol, 300 nM JQ1, 1 μM A-485, 2.5 μM CX-4945, 3 μM AZ191, 100 μM ABA 48 hours; for effect of inhibitor on activity of NuA4 complex interactors: 1 μM A-485 or 300 nM JQ1, e.g; call rule not given here. JAZF1 and KLF6
Experimental: To functionally investigate the connection between transcriptional activators and co-factors, a panel of 83 robust activators was arrayed. Their activation potential was tested using the reporter assay, but now in the presence of small-molecule inhibitors targeting multiple transcriptional co-regulators. Three kinase inhibitors targeting transcriptional kinases (flavopiridol for CDK9, CX-4945 for casein kinase 2, and AZ191 for DYRK1A and DYRK1B), and two compounds inhibiting transcriptional co-factors (A-485 for CBP/p300, and JQ1 for BET family bromodomain proteins) were employed.
(§1) Arrayed recruitment assays. Reporter cells stably co-expressing ABI-dCas9 and TetO gRNA were seeded either on 48-well or 96-well plates (Sarstedt) to reach 50-70% confluency on the day of transfection. 150 ng of each construct to be tested was transfected with polyethylenimine (PEI) at a ratio of 0.6 μl reagent. The day after transfection, recruitment was induced by treatment with ABA (100 μM). […] Inhibitors were dissolved in DMSO to a stock concentration of 10 mM. The final concentrations used were 100 nM for flavopiridol, 300 nM for JQ1, 1 μM for A-485, 2.5 μM for CX-4945 and 3 μM for AZ191. All inhibitors were a kind gift from the Structural Genomics Consortium (SGC). 48 hours after induction, cells were dissociated and resuspended in flow buffer using a liquid handing robot (TECAN) and analyzed by LSR Fortessa (BD). Cells were gated on high EBFP2 and RFP as a measure of gRNA and transfection control, respectively. Flow cytometry data was analyzed using FlowJo (v10).

[2] = system: EGFP reporter (7×TetO array, basal CMV promoter) in HEK293T reporter cell line; experiment: TAD-seq pooled activation screen of 60-aa fragments fused to PYL1; conditions: for Hit high GFP: high GFP population (top 1%); for logFC high GFP / logFC medium GFP: log 2 fold change of counts, 100 μM ABA 48 hours; for logFC high GFP: sorted high GFP cells (top 1%) vs unsorted cells; for logFC medium GFP: sorted medium GFP cells (top 2-5%) vs unsorted cells; for Hit medium GFP: medium GFP population (top 2-5%)
Procedure, shortened: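 60-aa tiles at 20-aa steps from 75 activator proteins, C-terminally fused to PYL1, lentivirally transduced at low MOI into reporter cells co-expressing ABI-dCas9 and promoter gRNA. Recruitment induced with 100 μM abscisic acid for 48 h (DMSO control). Top 1% and next 4% GFP cells sorted; fragments quantified by sequencing, two replicates.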

[3] = system: EGFP reporter (7×TetO array, basal CMV promoter) in HEK293T reporter cell line; experiment: Arrayed recruitment assay, PYL1 fusions individually recruited to reporter via ABI1-dCas9 with ABA; design: key to independently validated as transactivating fragment: Fragments marked with * were independently validated; conditions: fragment fused to PYL1, arrayed format
Description: Treatment of cells with abscisic acid (ABA) induces an interaction between ABI1 and PYL1, thereby recruiting the potential transcriptional activator to a specific genomic locus defined by the guide RNA (gRNA). As a reporter, a HEK293T cell line that contains a stably integrated construct with a 7×TetO array and a basal CMV promoter driving the expression of EGFP was used (Gao et al., 2016). A monoclonal cell line that expresses ABI1-dCas9 and a single gRNA targeting TetO was generated by lentiviral infection.
as §1

[4] = system: EGFP reporter (TetO7) in HEK293T cells; experiment: Multi-TAD effectors fused to PYL1 recruited to EGFP reporter; conditions: PYL1 fusion, 1 μM abscisic acid, 24 or 48 hours
Experimental: Multiple TADs were fused together with PYL1 and tested for transcriptional activity using the PYL1-ABI EGFP reporter system described above. The following TAD fragments were used: CITED1-8 (SEQ ID NO: 47), CITED2-12 (SEQ ID NO: 49), C3orf62-12 (SEQ ID NO: 45), BRD8-25 (SEQ ID NO: 40), ZXDC-12 (SEQ ID NO: 97), KLF7-1 (SEQ ID NO: 72), ATXN7L3-1 (SEQ ID NO: 35), FAM90A1-20 (SEQ ID NO: 60), SPDYE4-3 (SEQ ID NO: 90), YAF2-7 (SEQ ID NO: 96).
Methods: Cells were seeded on 48-well plates. Next day, after cells were between 70-90% confluent, 250 ng of each construct was transfected in each well using (Thermo Fisher Scientific, 11668019) reagent. Each construct was either directly fused TagRFP either directly fused to each component or being co-expressed from the same plasmid was used as a measure of transfection. In each experiment, the same gate for RFP+ cells were used to control for the effect of each construct's expression levels on activity. EGFP reporter cells were expanded from a clonal line to control for level of ABI-dCas9 and gRNA targeting the TetO7 sites upstream of the promoter. For the CD133 induction experiment, a 293T cell line stably expressing ABI-dCas9 and a pool of 5 gRNAs targeting the promoter were used for all activators. CD133 antibody conjugated to APC (Miltenyi Biotec, 130-113-668) was used. […]

Compound | effect of inhibitor on activity of the activators [1] | Hit high GFP [2] | logFC high GFP [2] | logFC medium GFP [2] | Hit medium GFP [2] | independently validated as transactivating fragment [3] | other results
CN1CC[C@H](c2c(O)cc(O)c3c(=O)cc(-c4ccccc4Cl)oc23)[C@H](O)C1 [flavopiridol] | nearly complete loss of activity of all activators | – | – | – | – | – | –
SPDYE4-3: 60-aa TAD-seq fragment of SPDYE4; SPDYE4 activation domain (DPSPQPQSLGLKRKSEWSDESEEELEEELELERAPEPEDTWVVETLCGLKMKLKRKRASS; listed as Homo sapiens) | – | hit | 4.82 | 2.409 | hit | 3* | transcriptional activation of EGFP reporter by TAD fusions [4]: weak activity
COc1cc(N2CCN(C)CC2)ccc1Nc1nccc(-c2cn(C)c3cnccc23)n1 [AZ191] | slightly attenuating the activity of most activators | – | – | – | – | – | effect of inhibitor on activity of DCAF7 and NCKIPSD ([1]; 3 μM AZ191): not affected
CNC(=O)Nc1ccc2c(c1)CC[C@@]21OC(=O)N(CC(=O)N(Cc2ccc(F)cc2)[C@@H](C)C(F)(F)F)C1=O [Fragment A-485, A-485] | strongly affected the activity of some but not all transactivators | – | – | – | – | – | effect of inhibitor on activity of CBP/p300 non-interactors ([1]; 1 μM A-485): only one of the seven non-interactors was affected; effect of inhibitor on activity of KLF6 ([1]; 1 μM A-485): no effect; effect of inhibitor on activity of KLF15 ([1]; 1 μM A-485): inhibited the activity of KLF15; effect of inhibitor on activity of CBP/p300 interactors ([1]; 1 μM A-485, interactors by AP-MS and BioID): four of the six CBP/p300 interactors was significantly decreased; effect of inhibitor on activity of NuA4 complex interactors [1]: not significantly affected; sensitivity of C3orf62-Cterm and SRF-C3orf62 reporter activation to inhibitor ([1]; CBP/p300 inhibition): highly sensitive
FAM90A1-20: 60-aa TAD-seq fragment of FAM90A1 (HPAASHDGAQPLRVLFRRLENGRWSSSLLTAPSFHSPEKPGAFLAQSPHVSEKSEGPCVR; listed as Homo sapiens) | – | hit | 3.017 | 1.616 | hit | 20* | –
Cc1sc2c(c1C)C(c1ccc(Cl)cc1)=N[C@@H](CC(=O)OC(C)(C)C)c1nnc(C)n1-2 [JQ1] | increase in reporter gene activity | – | – | – | – | – | effect of inhibitor on activity of NuA4 complex interactors [1]: not affected
ZXDC-12: 60-aa TAD-seq fragment of ZXDC (SPAEQHGAQDTELSAGTGNFYLESGGSARTDYRAIQLAKEKKQRGAGSNAGASQSTQRKI; listed as Homo sapiens) | – | hit | 3.966 | 2.496 | hit | ZXDC-12* | –
BRD8-25: 60-aa TAD-seq fragment of BRD8 (GEELDFETVGDIIAIIEDKVDDHPEVLDVAAVEAALSFCEENDDPQSLPGPWEHPIQQER; listed as Homo sapiens) | – | hit | 1.567 | 1.834 | hit | BRD8-25* | –
CITED2-12: 60-aa TAD-seq fragment of CITED2 (AMLPPNVIDTDFIDEEVLMSLVIEMGLDRIKELPELWLGQNEFDFMTDFVCKQQPSRVSC; listed as Homo sapiens) | – | hit | 6.148 | −0.9005 | – | 12* | –
CITED1-8: 60-aa TAD-seq fragment of CITED1 (ESLSPSAGAQSPAIIDSDPVDEEVLMSLVVELGLDRANELPELWLGQNEFDFTADFPSSC; listed as Homo sapiens) | – | hit | 6.826 | −1.166 | – | 8* | –
